Assay results reported in EPA's CvTdb concentration-time database.

Legend:
rat [1] = experiment: concentration in blood after dosing; conditions: male
rat [2] = experiment: concentration in urine after dosing; conditions: dosed: benzo(a)pyrene, iv, male, Sprague Dawley
rat [3] = experiment: concentration in feces after dosing; conditions: dosed: benzo(a)pyrene, 40 umol/kg, iv, male, Sprague Dawley
rat [4] = experiment: concentration in kidney after dosing; conditions: dosed: benzo(a)pyrene, 40 umol/kg, iv, male, Sprague Dawley
rat [5] = experiment: concentration in skin after dosing; conditions: dosed: benzo(a)pyrene, 40 umol/kg, iv, male, Sprague Dawley
rat [6] = experiment: concentration in adipose after dosing; conditions: dosed: benzo(a)pyrene, 40 umol/kg, iv, male, Sprague Dawley
rat [7] = experiment: concentration in lung after dosing; conditions: dosed: benzo(a)pyrene, 40 umol/kg, iv, male, Sprague Dawley
rat [8] = experiment: concentration in liver after dosing; conditions: dosed: benzo(a)pyrene, 40 umol/kg, iv, male, Sprague Dawley
Rat [9] = conditions: dosed: dibromoacetic acid, 100 mg/kg, oral, Male, F344
Rat [10] = conditions: dosed: dibromoacetic acid, 100 mg/kg, oral, Male, F344; remark: listed apart in the source
Rat [11] = conditions: dosed: dibromoacetic acid, 40 mg/kg, oral, Male, F344
Rat [12] = conditions: dosed: dibromoacetic acid, 100 mg/kg, oral, Male, F344; remark: listed apart in the source
Rat [13] = conditions: dosed: dibromoacetic acid, 40 mg/kg, oral, Male, F344; remark: listed apart in the source
Rat [14] = conditions: dosed: dibromoacetic acid, 40 mg/kg, oral, Male, F344; remark: listed apart in the source
rat [15] = experiment: concentration in serum after dosing; conditions: dosed: benzo[a]pyrene, 20 mg/kg, oral, male, Wistar
rat [16] = conditions: dosed: benzo[a]pyrene, 1 mg/kg, iv, male, Sprague Dawley
rat [17] = conditions: dosed: benzo[a]pyrene, 1 mg/kg, iv, male, Sprague Dawley; remark: listed apart in the source
rat [18] = experiment: concentration in blood after dosing; conditions: dosed: hexane, 60000 ppm, dermal, duration: 4 hr, male, F344
rat [19] = experiment: concentration in blood after dosing; conditions: dosed: hexane, 60000 ppm, dermal, duration: 4 hr, male, F344; remark: listed apart in the source
rat [20] = experiment: concentration in blood after dosing; conditions: dosed: hexane, 60000 ppm, dermal, duration: 4 hr, male, F344; remark: listed apart in the source
rat [21] = experiment: concentration in blood after dosing; conditions: dosed: hexane, 60000 ppm, dermal, duration: 4 hr, male, F344; remark: listed apart in the source

Oc1ccc2ccc3c4ccccc4cc4ccc1c2c43 [3-hydroxybenzo(a)pyrene]
rat [1], dosed: benzo(a)pyrene, 40 umol/kg, iv, Sprague Dawley
Conditions	concentration in blood [µmol/kg]
2 h	0.105
4 h	0.0863
8 h	0.0912
16 h	0.0388
24 h	0.0235
33 h	0.0142
48 h	0.0084
72 h	0.0047

concentration in urine, rat [2]
Conditions	2 h	4 h	4.5 h	8 h	16 h	24 h	33 h	48 h	72 h
0.01 mg/kg	–	–	0.000494 mg/kg	–	–	0.000582 mg/kg	–	6.8e-05 mg/kg	2.3e-05 mg/kg
0.05 mg/kg	–	–	0.0016 mg/kg	–	–	0.0025 mg/kg	–	0.000305 mg/kg	0.000115 mg/kg
40 umol/kg	0.0001 µmol/kg	0.0022 µmol/kg	–	0.0119 µmol/kg	0.0604 µmol/kg	0.068 µmol/kg	0.19 µmol/kg	0.149 µmol/kg	0.209 µmol/kg

Conditions	concentration in adipose, rat [6] [µmol/kg]	concentration in feces, rat [3] [µmol/kg]	concentration in kidney, rat [4] [µmol/kg]	concentration in liver, rat [8] [µmol/kg]	concentration in lung, rat [7] [µmol/kg]	concentration in skin, rat [5] [µmol/kg]
2 h	0.0241	0.0001	0.195	0.49	0.023	0.385
4 h	0.0381	0.0004	0.429	0.588	0.0236	0.232
8 h	0.0582	0.0035	0.65	0.141	0.0176	0.135
16 h	0.0348	0.471	0.583	0.0819	0.0153	0.103
24 h	0.033	4.71	0.347	0.0528	0.0102	0.041
33 h	0.0322	7.72	0.293	0.0505	0.0085	0.0215
48 h	0.0192	8.75	0.0936	0.0149	0.0047	0.0148
72 h	0.0114	12.9	0.0512	0.0096	0.0045	0.0073

O=C(O)C(Br)Br [dibromoacetic acid]
amount in urine after dosing [µg]
Conditions	Rat [9]	Rat [10]	Rat [11]	Rat [12]	Rat [13]	Rat [14]
2 h	17.7	–	0.735	–	–	–
4 h	54.6	61.7	–	55.8	–	8.7
8 h	44.1	–	–	–	11.7	3.52
24 h	19.1	37.7	4.47	81	1.52	3.52
48 h	4.62	2.24	–	5.03	–	–

Oc1ccc2ccc3c4ccccc4cc4ccc1c2c43 [3-hydroxybenzo[a]pyrene]
Conditions	amount in feces after dosing [ng]	amount in urine after dosing [ng]	concentration in serum [ng/mL]
rat [15], 1.009 h	–	–	1.32
rat [15], 2.018 h	–	–	1.26
rat [15], 3.995 h	–	–	5.22
rat [15], 6.005 h	–	–	4.15
rat [15], 7.982 h	–	–	2.24
rat [15], 9.992 h	–	–	1.6
rat [16], 10.07 h	4790	–	–
rat [16], 24.05 h	16900	–	–
rat [16], 48.1 h	22700	–	–
rat [16], 72.03 h	23700	–	–
rat [16], 96.08 h	24500	–	–
rat [16], 120 h	24900	–	–
rat [17], 10.02 h	–	46.8	–
rat [17], 23.97 h	–	166	–
rat [17], 47.95 h	–	220	–
rat [17], 71.92 h	–	269	–
rat [17], 95.9 h	–	310	–
rat [17], 119.75 h	–	346	–

CCCCCC [hexane]
rat [1], dosed: hexane, 60000 ppm, dermal, duration: 4 hr, F344
Conditions	concentration in blood [ng/mL]
0.5 h	606
1 h	903
2 h	500

concentration in blood [ng/mL]
Conditions	0.5 h	1 h	2 h	3 h	4 h
rat [18]	1500	31.2	–	304	804
rat [19]	–	708	112	414	–
rat [20]	–	406	812	796	200
rat [21]	1240	804	1100	1300	999
